Data on 8 molecules can be found in patent US11591323B2, “Muscarinic agonists as non-steroidal and non-opioid analgesics and methods of use thereof” (Barry University, priority 2019, dated 2023).

Like-named read-outs stand apart in the source and are kept apart here.

What all share (parameters): host or cells: CHO cells, stably transfected
The target of one assay is T1, M2 muscarinic receptor (Homo sapiens, UniProt P08172).
T1 sequence (P08172 1-466): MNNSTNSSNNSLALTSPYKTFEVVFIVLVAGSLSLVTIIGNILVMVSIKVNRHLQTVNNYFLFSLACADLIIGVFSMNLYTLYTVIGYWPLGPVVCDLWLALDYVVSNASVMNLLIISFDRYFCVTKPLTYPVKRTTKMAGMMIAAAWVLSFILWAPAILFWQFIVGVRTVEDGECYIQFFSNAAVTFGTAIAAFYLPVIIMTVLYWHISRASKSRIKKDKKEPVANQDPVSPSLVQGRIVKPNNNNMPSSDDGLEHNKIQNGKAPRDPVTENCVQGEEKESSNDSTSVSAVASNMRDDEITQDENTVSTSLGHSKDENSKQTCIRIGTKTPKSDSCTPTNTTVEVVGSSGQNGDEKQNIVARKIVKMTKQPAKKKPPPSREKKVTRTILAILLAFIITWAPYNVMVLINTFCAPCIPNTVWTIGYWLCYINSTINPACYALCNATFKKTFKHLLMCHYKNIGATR
The experiment in a line: [3H]NMS competition binding, M2 CHO membranes.

In another assay the target is T2, M4 muscarinic receptor (Homo sapiens, UniProt P08173).
T2 sequence (P08173 1-479): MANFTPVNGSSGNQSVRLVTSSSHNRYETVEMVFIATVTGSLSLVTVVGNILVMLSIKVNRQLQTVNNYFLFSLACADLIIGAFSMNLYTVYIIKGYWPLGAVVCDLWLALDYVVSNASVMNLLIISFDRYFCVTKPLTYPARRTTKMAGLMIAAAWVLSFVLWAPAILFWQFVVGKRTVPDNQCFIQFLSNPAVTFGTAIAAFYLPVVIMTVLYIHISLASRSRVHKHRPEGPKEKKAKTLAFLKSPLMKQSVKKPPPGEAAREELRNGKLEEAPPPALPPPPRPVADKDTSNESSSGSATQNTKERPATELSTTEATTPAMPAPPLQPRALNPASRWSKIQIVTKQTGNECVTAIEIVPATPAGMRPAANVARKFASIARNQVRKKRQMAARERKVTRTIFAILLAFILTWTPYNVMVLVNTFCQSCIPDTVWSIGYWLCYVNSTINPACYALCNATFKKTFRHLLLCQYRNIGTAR
The experiment in a line: [3H]NMS competition binding, M4 CHO membranes. As to conditions: for binding that occurred with high affinity: fraction of binding to M4.

For another assay, the target named is T3, M1 muscarinic receptor (Homo sapiens, UniProt P11229).
T3 sequence (P11229 1-460): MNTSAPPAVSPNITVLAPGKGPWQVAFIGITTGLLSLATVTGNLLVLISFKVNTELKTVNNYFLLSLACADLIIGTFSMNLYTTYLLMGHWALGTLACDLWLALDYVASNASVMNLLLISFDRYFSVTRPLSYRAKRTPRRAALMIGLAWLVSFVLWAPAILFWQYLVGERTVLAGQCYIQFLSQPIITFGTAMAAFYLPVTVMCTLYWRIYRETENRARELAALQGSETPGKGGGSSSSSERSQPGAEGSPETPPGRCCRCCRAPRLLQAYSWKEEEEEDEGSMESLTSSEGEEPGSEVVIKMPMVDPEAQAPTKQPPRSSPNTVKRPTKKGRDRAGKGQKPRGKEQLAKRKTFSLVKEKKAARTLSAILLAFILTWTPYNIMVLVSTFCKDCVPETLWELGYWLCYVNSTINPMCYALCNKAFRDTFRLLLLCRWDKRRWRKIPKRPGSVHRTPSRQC
The assay can be described thus: [3H]NMS competition binding, M1 CHO membranes.

A further assay addresses T4, M5 muscarinic receptor (Homo sapiens, UniProt P08912).
T4 sequence (P08912 1-532): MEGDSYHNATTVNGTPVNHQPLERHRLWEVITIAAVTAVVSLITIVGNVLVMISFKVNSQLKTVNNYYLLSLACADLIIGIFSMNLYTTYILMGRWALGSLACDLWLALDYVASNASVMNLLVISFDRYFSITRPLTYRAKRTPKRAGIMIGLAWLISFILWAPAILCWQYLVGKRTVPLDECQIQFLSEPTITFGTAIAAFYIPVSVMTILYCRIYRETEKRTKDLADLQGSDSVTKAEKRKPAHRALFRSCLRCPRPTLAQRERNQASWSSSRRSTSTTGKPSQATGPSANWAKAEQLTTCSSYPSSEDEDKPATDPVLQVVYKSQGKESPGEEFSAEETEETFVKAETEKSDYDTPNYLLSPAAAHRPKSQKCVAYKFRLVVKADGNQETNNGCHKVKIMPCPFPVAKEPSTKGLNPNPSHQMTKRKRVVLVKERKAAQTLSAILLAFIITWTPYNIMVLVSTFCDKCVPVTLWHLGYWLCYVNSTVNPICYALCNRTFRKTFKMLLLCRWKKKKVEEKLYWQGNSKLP
The assay can be described thus: [3H]NMS competition binding, M5 CHO membranes.

The mark [1] stands for this setting: competition with 1 nM [3H]NMS, read-out: Inhibition constants (Ki) as negative logarithms, M2 (converted).
The mark [2] stands for this setting: competition with 1 nM [3H]NMS, read-out: Inhibition constants (Ki) as negative logarithms, M1 (converted).
The mark [3] stands for this setting: competition with 1 nM [3H]NMS, read-out: Inhibition constants (Ki) as negative logarithms, M5 (converted).
Where [4] appears, read: high-affinity fraction of binding to M2, read-out: high affinity binding.
Where [5] appears, read: competition with 1 nM [3H]NMS, read-out: Inhibition constants (Ki) as negative logarithms, M4 (converted).
Setting [6] is: high-affinity fraction of binding to M4, read-out: high affinity binding.

For `C1=CCN(Cc2cccs2)CC1.Cl` [Compound 6A, 1-[(thiophen-2-yl)methyl]-1,2,3,6-tetrahydropyridin-1-ium chloride], the Ki was 42700 nM at M2 muscarinic receptor (setting [1]); 54000 nM at M4 muscarinic receptor (at M4 receptors, read-out: Inhibition constants Ki); 44700 nM at M1 muscarinic receptor (setting [2]); 50100 nM on M5 muscarinic receptor (setting [3]).

`Cc1ccc(CN2CC=CCC2)s1.Cl` [Compound 6B, 1-[(5-methylthiophen-2-yl)methyl]-1,2,3,6-tetrahydropyridin-1-ium chloride]: the Ki is 10200 nM on M2 muscarinic receptor (setting [1]); around 30 nM on M2 muscarinic receptor (setting [4]); 28800 nM at M4 muscarinic receptor (setting [5]); around 30 nM on M4 muscarinic receptor (setting [6]); 20 nM on M4 muscarinic receptor (high-affinity fraction, M4, read-out: pKI of high affinity binding (converted)); 25100 nM at M1 muscarinic receptor (setting [2]). Further, the Ki on M5 muscarinic receptor (setting [3]) was 24000 nM. The “binding that occurred with high affinity” value on M4 muscarinic receptor is reported as around 10%.

In the case of `Brc1ccc(CN2CC=CCC2)s1.Cl` [Compound 6C, 1-[(5-bromothiophen-2-yl)methyl]-1,2,3,6-tetrahydropyridin-1-ium chloride], the Ki on M2 muscarinic receptor (setting [1]) is 10000 nM; on M4 muscarinic receptor (setting [5]), 12600 nM; at M1 muscarinic receptor (setting [2]) it was 7590 nM; at M5 muscarinic receptor (setting [3]), 12900 nM.

Turning to `C[N+]1(Cc2cccs2)CC=CCC1.[I-]` (centres unmarked) [Compound 7A, 1-methyl-1-[(thiophen-2-yl)methyl]-1,2,3,6-tetrahydropyridin-1-ium iodide], the Ki at M2 muscarinic receptor (setting [1]) is 7940 nM; at M4 muscarinic receptor (setting [5]), 7940 nM; at M1 muscarinic receptor (setting [2]) it was 11200 nM; on M5 muscarinic receptor (setting [3]) it was 10000 nM.

As to `Cc1ccc(C[N+]2(C)CC=CCC2)s1.[I-]` (centres unmarked) [Compound 7B, 1-methyl-1-[(5-methylthiophen-2-yl)methyl]-1,2,3,6-tetrahydropyridin-1-ium iodide], the Ki is 2290 nM on M2 muscarinic receptor (setting [1]); around 30 nM at M2 muscarinic receptor (setting [4]); 4370 nM on M4 muscarinic receptor (setting [5]); around 30 nM on M4 muscarinic receptor (setting [6]); 3980 nM at M1 muscarinic receptor (setting [2]); 3390 nM on M5 muscarinic receptor (setting [3]). For the same molecule, the “binding that occurred with high affinity” value at M4 muscarinic receptor is recorded as around 10%.

With `C[N+]1(Cc2ccc(Br)s2)CC=CCC1.[I-]` (centres unmarked) [Compound 7C, 1-[(5-bromothiophen-2-yl)methyl]-1-methyl-1,2,3,6-tetrahydropyridin-1-ium iodide], the Ki was 933 nM on M2 muscarinic receptor (setting [1]), 1450 nM on M4 muscarinic receptor (setting [5]), 1510 nM at M1 muscarinic receptor (setting [2]) and 977 nM on M5 muscarinic receptor (setting [3]).

On to `C[N+]1(Cc2ccc(Cl)s2)CC=CCC1.[I-]` (centres unmarked) [Compound 7D, 1-[(5-chlorothiophen-2-yl)methyl]-1-methyl-1,2,3,6-tetrahydropyridin-1-ium iodide], for which the Ki on M2 muscarinic receptor (Inhibition constants (Ki) as negative logarithms, M2, competition with 1 nM [3H]NMS) was 692 nM; at M2 muscarinic receptor (Inhibition constants Ki, at M2 receptors), 700 nM; on M4 muscarinic receptor (Inhibition constants (Ki) as negative logarithms, M4, competition with 1 nM [3H]NMS) it was 3090 nM; on M1 muscarinic receptor (setting [2]), 1380 nM; on M5 muscarinic receptor (Inhibition constants (Ki) as negative logarithms, M5, competition with 1 nM [3H]NMS) it was 1700 nM.

For the molecule `O=C1CCCN1CC#CCN1CCCC1` [oxotremorine, reference compound], the Ki at M2 muscarinic receptor (Inhibition constants (KI) as negative logarithms, M2, high site, reference agonists, high affinity site) was 12.6 nM; on M2 muscarinic receptor (Inhibition constants (KI) as negative logarithms, M2, low site, reference agonists, low affinity site) it was 575 nM; on M4 muscarinic receptor (Inhibition constants (KI) as negative logarithms, M4, high site, reference agonists, high affinity site) it was 12.6 nM; on M4 muscarinic receptor (Inhibition constants (KI) as negative logarithms, M4, low site, reference agonists, low affinity site) it was 617 nM; on M1 muscarinic receptor (Inhibition constants (KI) as negative logarithms, M1, high site), 7.94 nM; at M1 muscarinic receptor (Inhibition constants (KI) as negative logarithms, M1, low site) it was 372 nM. Further, the Ki at M5 muscarinic receptor (Inhibition constants (KI) as negative logarithms, M5, high site, reference agonists, high affinity site) is 12.6 nM; at M5 muscarinic receptor (Inhibition constants (KI) as negative logarithms, M5, low site, reference agonists, low affinity site) it was 537 nM.
